Laboratory results taken from US8461083B2, “Herbicidal compounds” (Syngenta Limited, priority 2008, dated 2013).

Experiments:
Type in all cases: in vivo
[1] = test system: Alopecurus myosuroides (ALOMY); test: Post-emergence herbicidal glasshouse test; conditions: post-emergence (sprayed after 8 days cultivation), evaluated after 13 days, 100=total damage to plant, 0=no damage to plant; for POST Application ALOMY, damage to plant: 1000 g/ha; for pest or weed control at 1000 g/ha: Alopecurus myosuroides, 312 h, read-out: POST Application ALOMY, damage to plant
Outline: (§1)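 Rates of 1000 g/ha are applied as an acetone/water (50:50) spray with 0.5% Tween 20 to soil-sown pots, pre-emergence at day 1 or post-emergence at day 8. Percent damage is assessed after 13 days.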

[2] = test system: Amaranthus retoflexus (AMARE); test: Post-emergence herbicidal glasshouse test; conditions: post-emergence (sprayed after 8 days cultivation), evaluated after 13 days, 100=total damage to plant, 0=no damage to plant; for POST Application AMARE, damage to plant: 1000 g/ha; for pest or weed control at 1000 g/ha: Amaranthus retroflexus, 312 h, read-out: POST Application AMARE, damage to plant
Outline: as §1

[3] = test system: Echinochloa crus-galli (ECHCG); test: Post-emergence herbicidal glasshouse test; conditions: post-emergence (sprayed after 8 days cultivation), evaluated after 13 days, 100=total damage to plant, 0=no damage to plant; for POST Application ECHCG, damage to plant: 1000 g/ha; for pest or weed control at 1000 g/ha: Echinochloa crus-galli, 312 h, read-out: POST Application ECHCG, damage to plant
Outline: (§2)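 Damage rated 13 days after application on a 0 (none) to 100 (total) scale. Compounds went on at 1000 g/ha in acetone/water 50:50 plus 0.5% Tween 20, one day post-sowing for pre-emergence or eight days for post-emergence. Plants grown at 24/16° C, 14 h light, 65% humidity.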

Setaria faberi (SETFA) [4] = test: Post-emergence herbicidal glasshouse test; conditions: post-emergence (sprayed after 8 days cultivation), evaluated after 13 days, 100=total damage to plant, 0=no damage to plant; for POST Application SETFA, damage to plant: 1000 g/ha; for pest or weed control at 1000 g/ha: Setaria faberi, 312 h, read-out: POST Application SETFA, damage to plant
Outline: as §1

Solanum nigrum (SOLNI) [5] = test: Post-emergence herbicidal glasshouse test; conditions: post-emergence (sprayed after 8 days cultivation), evaluated after 13 days, 100=total damage to plant, 0=no damage to plant; for POST Application SOLNI, damage to plant: 1000 g/ha; for pest or weed control at 1000 g/ha: Solanum nigrum, 312 h, read-out: POST Application SOLNI, damage to plant
Outline: as §1

[6] = test system: Alopecurus myosuroides (ALOMY); test: Pre-emergence herbicidal glasshouse test; conditions: pre-emergence (sprayed after one day cultivation), evaluated after 13 days, 100=total damage to plant, 0=no damage to plant; for PRE Application ALOMY, damage to plant: 1000 g/ha; for pest or weed control at 1000 g/ha: Alopecurus myosuroides, 312 h, read-out: PRE Application ALOMY, damage to plant
Outline: as §1

[7] = test system: Amaranthus retoflexus (AMARE); test: Pre-emergence herbicidal glasshouse test; conditions: pre-emergence (sprayed after one day cultivation), evaluated after 13 days, 100=total damage to plant, 0=no damage to plant; for PRE Application AMARE, damage to plant: 1000 g/ha; for pest or weed control at 1000 g/ha: Amaranthus retroflexus, 312 h, read-out: PRE Application AMARE, damage to plant
Outline: as §1

[8] = test system: Echinochloa crus-galli (ECHCG); test: Pre-emergence herbicidal glasshouse test; conditions: pre-emergence (sprayed after one day cultivation), evaluated after 13 days, 100=total damage to plant, 0=no damage to plant; for PRE Application ECHCG, damage to plant: 1000 g/ha; for pest or weed control at 1000 g/ha: Echinochloa crus-galli, 312 h, read-out: PRE Application ECHCG, damage to plant
Outline: as §2

Setaria faberi (SETFA) [9] = test: Pre-emergence herbicidal glasshouse test; conditions: pre-emergence (sprayed after one day cultivation), evaluated after 13 days, 100=total damage to plant, 0=no damage to plant; for PRE Application SETFA, damage to plant: 1000 g/ha; for pest or weed control at 1000 g/ha: Setaria faberi, 312 h, read-out: PRE Application SETFA, damage to plant
Outline: as §1

Solanum nigrum (SOLNI) [10] = test: Pre-emergence herbicidal glasshouse test; conditions: pre-emergence (sprayed after one day cultivation), evaluated after 13 days, 100=total damage to plant, 0=no damage to plant; for PRE Application SOLNI, damage to plant: 1000 g/ha; for pest or weed control at 1000 g/ha: Solanum nigrum, 312 h, read-out: PRE Application SOLNI, damage to plant
Outline: as §1

Compound	POST Application ALOMY, damage to plant [1]	POST Application AMARE, damage to plant [2]	POST Application ECHCG, damage to plant [3]	POST Application SETFA, damage to plant (Setaria faberi (SETFA) [4])	POST Application SOLNI, damage to plant (Solanum nigrum (SOLNI) [5])	PRE Application ALOMY, damage to plant [6]	PRE Application AMARE, damage to plant [7]	PRE Application ECHCG, damage to plant [8]	PRE Application SETFA, damage to plant (Setaria faberi (SETFA) [9])	PRE Application SOLNI, damage to plant (Solanum nigrum (SOLNI) [10])	pest or weed control at 1000 g/ha [1] [%]	pest or weed control at 1000 g/ha [2] [%]	pest or weed control at 1000 g/ha [3] [%]	pest or weed control at 1000 g/ha (Setaria faberi (SETFA) [4]) [%]	pest or weed control at 1000 g/ha (Solanum nigrum (SOLNI) [5]) [%]	pest or weed control at 1000 g/ha [6] [%]	pest or weed control at 1000 g/ha [7] [%]	pest or weed control at 1000 g/ha [8] [%]	pest or weed control at 1000 g/ha (Setaria faberi (SETFA) [9]) [%]	pest or weed control at 1000 g/ha (Solanum nigrum (SOLNI) [10]) [%]
CN(Cc1nc2nc(C(F)(F)F)ccc2cc1C(=O)C1C(=O)CCCC1=O)S(C)(=O)=O [Compound 1.108, 2-[{methanesulfonyl-N-methylaminomethyl}-7-trifluoromethyl-[1,8]-naphthyridine-3-carbony]-cyclohexane-1,3-dione]	20	70	80	80	90	0	80	70	40	90	–	–	–	–	–	–	–	–	–	–
CCc1nc2nc(C(F)(F)F)ccc2cc1C(=O)C1C(=O)CCCC1=O [Compound 1.107, 2-[2-ethyl-7-trifluoromethyl-[1,8]-naphthyridine-3-carbony]-cyclohexane-1,3-dione]	–	–	–	–	–	–	–	–	–	–	50	100	80	90	100	30	100	100	100	90
O=C1CCCC(=O)C1C(=O)c1cc2cc(F)c(CCF)nc2nc1C(F)(F)F [Compound 1.69]	60	90	80	80	80	60	20	100	90	100	–	–	–	–	–	–	–	–	–	–
CC(CF)c1ccc2cc(C(=O)C3C(=O)C4CCC(C4)C3=O)c(C(F)(F)F)nc2n1 (stereo not drawn) [Compound 3.11]	70	100	80	90	90	70	100	100	90	100	–	–	–	–	–	–	–	–	–	–
O=C1CCCC(=O)C1C(=O)c1cc2ccc(C(F)F)nc2nc1C(F)(F)F [Compound 1.12]	–	–	–	–	–	–	–	–	–	–	100	60	100	100	100	90	100	100	100	100
CC(F)(F)c1ccc2cc(C(=O)C3C(=O)CCCC3=O)c(C(F)(F)F)nc2n1 [Compound 1.36, 2-[7-(1,1-difluoroethyl)-2-trifluoromethyl-[1,8]-naphthyridine-3-carbony]-cyclohexane-1,3-dione]	90	100	90	90	100	70	100	90	100	100	–	–	–	–	–	–	–	–	–	–
O=C1CCCC(=O)C1C(=O)c1cc2ccc(=O)n(C3CCCC3)c2nc1C(F)(F)F [Compound 2.8, 2-{8-cyclopentyl-7-oxo-7,8-dihydro-2-trifluoromethyl-[1,8]-naphthyridine-3-carbony}-cyclohexane-1,3-dione]	–	–	–	–	–	–	–	–	–	–	70	70	80	90	90	30	80	70	70	90
CCCCCCCC(=O)OC1=C(C(=O)c2cc3cc(F)c(C)nc3nc2C(F)(F)F)C(=O)CCC1 [Compound 4.22, n-Octanoic acid 2-(6-fluoro-7-methyl-2-trifluoromethyl-[1,8]-naphthyridine-3-carbonyl)-3-oxo-cyclohex-1-enyl ester]	–	–	–	–	–	–	–	–	–	–	70	90	90	80	90	60	100	100	100	100
COCCNc1nc2nc(C(F)(F)F)c(C(=O)C3C(=O)CCCC3=O)cc2cc1F [Compound 1.83, 2-[6-fluoro-7-(2-methoxyethylamino)-2-trifluoromethyl-[1,8]-naphthyridine-3-carbony]-cyclohexane-1,3-dione]	80	80	80	80	80	60	100	100	100	100	–	–	–	–	–	–	–	–	–	–
Cc1nc2nc(C(F)(F)F)c(C(=O)C3C(=O)CCCC3=O)cc2c(C)c1F [Compound 1.88, 2-[5,7-dimethyl-6-fluoro-2-trifluoromethyl-[1,8]-naphthyridine-3-carbony]-cyclohexane-1,3-dione]	–	–	–	–	–	–	–	–	–	–	30	100	90	80	90	40	90	100	100	100
CCCn1c(=O)ccc2cc(C(=O)C3C(=O)CCCC3=O)c(C(F)(F)F)nc21 [Compound 2.13, 2-{8-n.-propyl-7-oxo-7,8-dihydro-2-trifluoromethyl-[1,8]-naphthyridine-3-carbony}-cyclohexane-1,3-dione]	80	70	90	90	90	60	90	90	90	100	–	–	–	–	–	–	–	–	–	–
CC(C)(C)C(=O)Cn1c(=O)ccc2cc(C(=O)C3C(=O)CCCC3=O)c(C(F)(F)F)nc21 [Compound 2.7, 2-{8-(3,3-dimethyl-2-oxo-butyl)-7-oxo-7,8-dihydro-2-trifluoromethyl-[1,8]-naphthyridine-3-carbony}-cyclohexane-1,3-dione]	40	70	70	70	100	30	60	80	40	100	–	–	–	–	–	–	–	–	–	–
